In PubChem BioAssay AID743417 (Broad Institute, 2014):
Where “and” joins values, the source holds several entries; their conditions need not be identical. Identical values can stand only once. Records with an inconclusive call do not appear.

What follows are compounds tested on Clone20 osteoblast Shn3 3'UTR firefly luciferase, 24 h (assay: Schnurri-3 3'UTR-luciferase signal suppressors – cell-based, Clone20 osteoblasts, luminescence, dry powder, set 2, dose response (AID 743417)).
Work on Cc1nc2c(OCc3ccc(Cl)cc3Cl)cccn2c1N(C)CC1CC1 yielded an AC50 of 10 µM.
Work on Oc1ccc(-c2n[nH]c(C(F)(F)F)c2-c2ccccc2)c(O)c1 yielded an AC50 of 0.283 µM.
Compound Nc1cc(Cl)c2nonc2c1[N+](=O)[O-] has an AC50 of 5.37 µM.
Cc1ccc(NN2C(=O)C=C(c3ccc(Cl)cc3)C2=O)cc1 was tested, and the AC50 was 6.53 µM.
Compound COc1ccc(Cc2nccc3cc(OC)c(OC)cc23)cc1OC has an AC50 of 2.48 µM.
In the case of COc1cc(C(=O)NC2CCCc3c2cnn3-c2ccccc2F)cc(OC)c1OC (configuration not stated), the AC50 is reported as 0.781 µM.
In the case of O=c1cc(-c2ccc(O)cc2)oc2ccc3ccccc3c12, the AC50 is reported as 5.41 µM.
Work on CCc1c(C)nc2ncnn2c1NCCc1ccc(Cl)cc1 yielded an AC50 of 2.17 µM.
Compound S=C(NCc1ccc(Cl)cc1)Nc1ccncc1 has an AC50 of 1.5 µM.
CC(C)=CCc1cc([C@@H]2COc3c(ccc4c3C=CC(C)(C)O4)C2)c(O)cc1O showed an AC50 of 7.54 µM.
Compound NC1=NC[C@@H](CC2CCCCC2)N1CCc1cc(C(F)(F)F)cc(C(F)(F)F)c1 has an AC50 of 9.92 µM.
Work on COc1ccccc1C(=O)Nc1nc(-c2ccc(S(=O)(=O)N3CCOCC3)cc2)cs1 yielded an AC50 of 1.21 µM.
With COc1ccc(N2CCN(C(=O)CN3CCN(c4nc(-c5ccc(F)cc5)cs4)CC3)CC2)cc1 the AC50 was 1.81 µM.
In the case of CC(C)NC(=O)C1CCN(C(=O)c2cc3sccc3n2Cc2ccc(F)cc2)CC1, the AC50 is reported as 5.05 µM.
Compound CC(C)(C)n1nnnc1C(c1cccs1)N1CCCC2(CCCCC2)C1 (configuration not stated) has an AC50 of 21.7 µM.
Work on COc1ccc(C(NC(=O)C(C)C)c2ccc3cccnc3c2O)cc1 (configuration not stated) yielded an AC50 of 1.35 µM.
With C[n+]1c2n(c3ccccc31)N=C(c1cc(C(C)(C)C)c(O)c(C(C)(C)C)c1)CS2 the AC50 was 5.92 µM.
COc1ccc(-c2noc(CCC(=O)NCCCN3CCC(Cc4ccccc4)CC3)n2)cc1 showed an AC50 of 4.03 µM.
CCS(=O)(=O)c1ncc(Cl)c(C(=O)Nc2ccc(S(=O)(=O)N(C)c3ccccc3)cc2)n1 showed an AC50 of 0.308 µM.
COc1ccc([C@H]2CC(=O)C=C(c3ccc(F)cc3OCc3ccccc3)C2)cc1OC gave an AC50 of 7.36 µM.
With CC(=O)c1ccc(N2CCN(S(=O)(=O)c3ccc(-c4cnc(C5CC5)o4)cc3)CC2)cc1 the AC50 was 5.95 µM.
Compound COc1ccc(CNc2ncnc3sccc23)cc1 has an AC50 of 1.66 µM.
COc1ccccc1NC(=O)Nc1nc(C(N)Cc2ccc(C(F)(F)F)cc2)cs1 (configuration not stated) showed an AC50 of 10.3 µM.
In the case of CN(C)c1nc(-c2ccccn2)nnc1-c1ccccc1, the AC50 is reported as 3.3 µM.
Cc1cccc(NS(=O)(=O)c2ccc(C3CCCCC3)cc2)c1 gave an AC50 of 5.13 µM.
For CC(CCc1ccccc1)NC(=O)COC(=O)c1ccc(S(C)(=O)=O)c([N+](=O)[O-])c1 (configuration not stated), the AC50 was 3.34 µM.
For Cc1cc2sc3ccc(C#CC4(O)CCCCC4)cc3c(=O)c2cc1C, the AC50 was under 0.26 µM.
CC(CNC(=O)c1cc(COc2ccc3ncccc3c2)on1)c1ccccc1 (configuration not stated) was tested, and the AC50 was 3.73 µM.
Work on COc1cc(NC(=O)NCc2ccco2)ccc1-c1ccc(NC(=O)NCc2ccco2)cc1OC yielded an AC50 of 3.19 µM.
Work on CCn1c(N2CCN(S(=O)(=O)c3ccc(Cl)cc3)CC2)nc2ccccc21 yielded an AC50 of 9.14 µM.
For CCn1c(C)cc(C(=O)COC(=O)c2ccccc2[N+](=O)[O-])c1C, the AC50 was under 0.26 µM.
Cc1ccc(F)cc1CNC(=O)c1cc(COc2ccc3ncccc3c2)on1 gave an AC50 of 4.88 µM.
O=c1c2ccccc2cnn1-c1nc2ccccc2[nH]1 showed an AC50 of 1.33 µM.
c1ccc(CN2CCN(c3ncnc4c3[nH]c3ccccc34)CC2)cc1 gave an AC50 of 2.06 µM.
With Cc1ccc(C)c(S(=O)(=O)N2CCN(c3ncnc4sccc34)CC2)c1 the AC50 was 0.631 µM.
Compound CCCC(=O)NC(c1cccc([N+](=O)[O-])c1)c1ccc2cccnc2c1O (configuration not stated) has an AC50 of 1.75 µM.
Work on Cc1ccc(Cl)cc1N1CCN(C(=O)C2CCC(=O)N(C3CCCCCC3)C2)CC1 (configuration not stated) yielded an AC50 of 3.14 µM.
Compound CC(Oc1ccc(F)cc1)C(=O)N(CCC1=CCCCC1)c1c(N)n(Cc2ccccc2)c(=O)[nH]c1=O (configuration not stated) has an AC50 of 7.99 µM.
Work on CNC(=O)c1nnsc1S(=O)c1ccc(Cl)cc1 (configuration not stated) yielded an AC50 of 2.02 µM.
With Cc1ccc(N/C(N)=N/c2nc(C)cc(N3CCCCC3)n2)c(C)c1 the AC50 was 0.891 µM.
O=C(COC(=O)c1n[nH]c2ccccc12)Nc1ccc(S(=O)(=O)N2CCCC2)cc1 gave an AC50 of 5.33 µM.
With CCCC(=O)N1CCN(c2ccc(NC(=O)c3cc4ccccc4o3)cc2Cl)CC1 the AC50 was 4.1 µM.
O=C(c1ccc2c(=O)n(-c3ccccc3)c(=S)[nH]c2c1)N1CCCCC1 showed an AC50 of 1.44 µM.
Cc1cccc(C(=O)Nc2ccc(C(=O)/C=C/c3ccncc3)cc2)c1 was tested, and the AC50 was 3.41 µM.
In the case of O=C(Nc1ccccc1Cl)/C(Cl)=C(\Cl)S(=O)c1ccccc1 (configuration not stated), the AC50 is reported as 0.438 µM.
Compound CC[C@H]1CN2CCc3cc(OC)c(OC)cc3C2C[C@@H]1C[C@H]1NCCc2cc(OC)c(OC)cc21 (some centres not stated) has an AC50 of under 0.26 µM.
Compound S=C(Nc1ccccc1)Nc1ccc(OCc2ccc(Cl)cc2Cl)cc1 has an AC50 of 0.405 µM.
Compound COc1ccc(-c2cc(C(F)(F)F)nc(S(=O)(=O)CCCC(=O)Nc3cccnc3Cl)n2)cc1OC has an AC50 of 3.17 µM.
Work on CC(C)N=C(N)N=C(N)Nc1ccc(Cl)cc1 yielded an AC50 of 0.37 µM.
With C[C@H]1CCC/C=C/[C@@H]2C[C@H](O)C[C@H]2[C@H](O)/C=C/C(=O)O1 the AC50 was 3.15 µM and 2.2 µM.
For Cc1nc(SCC(=O)Nc2nc3ccccc3s2)c(C#N)c(C)c1C, the AC50 was under 0.26 µM.
For COc1ccc(NC(=O)CSc2ncccc2C(=O)OC(C)C)cc1OC, the AC50 was 4.1 µM.
